Experimental data taken from article PMC11211329, “Phage-encoded bismuth bicycles enable instant access to targeted bioactive peptides” (Communications Chemistry, 2024).
Peptide text beside a SMILES is read from it.

What was measured:
[1] = molecular target: T1, streptavidin (Streptomyces avidinii, UniProt P22629); assay: biochemical; type: binding
T1 construct: purchased New England Biolabs
Protocol: SPR measurements were performed with 20 mM HEPES–KOH pH 7.4, 150 mM NaCl, 0.5 mM TCEP, 0.05% (v/v) polysorbate 20 as running buffer. For each experiment, 100–150 μg streptavidin in 10 mM sodium acetate pH 3.9 buffer was freshly immobilised on a sensor chip flow-cell using EDC/NHS chemistry at 25 °C in absence of TCEP. All binding experiments were conducted at 20 °C in single-cycle kinetics mode (Fig. 4, Supplementary Figs. 17, 18, Supplementary Data 2).
SPR experiments were performed on a Biacore 8K (Cytiva, USA) using a CM5 chip (Cytiva, 29104988, USA), onto which streptavidin (New England Biolabs, USA) was freshly immobilised using an amine coupling kit (Cytiva, USA) for each individual experiment. The instrument was operated using Biacore Insight 5 software (Cytiva, USA). The data were plotted and analysed in GraphPad Prism 10 (Dotmatics, USA) using the non-linear fit ‘one site – specific binding’ (Supplementary Equation 2). KD values of duplicate measurements are represented as the mean value ± standard deviation.
Supplementary Equation 2.
X = analyte concentration [µM]
RUmax = maximum response [RU]
KD = dissociation constant [µM]

[2] = test system: naïve three-cysteine phage library; assay: Plaque-forming assay, effect of bicyclisation reagent on phage infectivity; type: cell-based, M13 bacteriophage; conditions: 120 μM, 5 min exposure
Protocol: bismuth(III). The reaction mixture was vortexed briefly once more and incubated at room […]
Modification with bismuth tripotassium dicitrate (gastrodenol)
Bismuth tripotassium dicitrate (gastrodenol) in ultrapure sterile water (50 mM) was added to the reduced phage solution while gently vortexing to a final volume of 1040 μL to obtain a final concentration of 120 μM bismuth(III). The reaction mixture was vortexed briefly once more and incubated at room temperature for 5 min.
Modification with sodium arsenite (NaAsO2)
Sodium arsenite (NaAsO2) in ultrapure sterile water (50 mM) was added to the reduced phage solution while gently vortexing to a final volume of 1040 μL to obtain a final concentration of 120 μM arsenic(III). The reaction mixture was vortexed briefly once more and incubated at room […]
An overnight culture of Escherichia coli ER2738 (New England Biolabs, E4104, USA), a strain commonly used for phage display, was prepared by growing the bacteria in tetracycline containing LB media at 37 °C for 16 h at 220 rpm. Aliquots of 3 mL of melted top agar were transferred into sterile polystyrene tubes (Corning, 352051, USA) and heated up to 50 °C on a dry bath (Thermo Fisher, 88870004, USA) until ready to use. A dilution series of the phage library was prepared as required, at a final volume of 1 mL, whereby a 10 μL portion of each phage dilution was added to 200 μL of the bacterial overnight culture, incubated for 5 min and transferred fully into a tube containing 3 mL top agar. The contents in the tube were gently mixed by vortexing and poured entirely on a warm LB/IPTG/X-Gal plate, allowing the top agar-mixture to spread evenly across the plate. The plate was allowed to solidify and left in an incubator oven overnight at 37 °C. The number of plaques was counted by selecting plates with plaques separated at a countable level.
The concentration of the original solution was then calculated in pfu/mL using the following equation (Supplementary Equation 1).
Supplementary Equation 1.
concentration of original phage library solution = number of plaques ∙ dilution factor [pfu/mL]
Effect of bicyclisation reagent on phage infectivity
To evaluate the impact of bismuth(III) and arsenic(III) on the infectivity of the naïve three-cysteine phage library, phage titres were measured both before and after the addition of the metal(loid).
Accordingly, for each modification experiment three 1000 μL aliquots of ~1011 pfu/mL of freshly amplified naïve phage library in PBS were set aside and subjected to a plaque-forming assay to determine their titre. Next, these library aliquots were individually exposed to either 120 μM bismuth(III) from BiBr3 (50 mM DMSO) or gastrodenol (50 mM in ultrapure water) or 120 μM arsenic(III) from NaAsO2 (50 mM in ultrapure water), with each reagent being used for the modification of three library aliquots. During addition of the thiophilic element, the reaction mixtures were briefly vortexed and incubated at room temperature for 5 min. Excess reagent was removed from the modified phage library solution using spin desalting columns (Thermo Fisher, 89883, USA) at 2000 × g for 2.5 min. The titre of the modified phage solution was subsequently determined using the plaque-forming assay, which was also performed in triplicate. A parallel experiment was conducted using the addition of PBS as the control. Phage titres before and after their respective modification were plotted in GraphPad Prism 10 (Dotmatics, USA) […]
Supplementary Fig. 20. […]

T1 sequence (P22629 25-183): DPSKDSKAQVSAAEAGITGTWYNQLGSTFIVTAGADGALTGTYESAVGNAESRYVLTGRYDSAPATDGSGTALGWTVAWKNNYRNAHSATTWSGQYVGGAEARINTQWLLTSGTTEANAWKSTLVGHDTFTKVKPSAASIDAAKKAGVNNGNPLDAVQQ

With `CC(C)[C@@H]1NC(=O)[C@H](CCC(N)=O)NC(=O)[C@@H]2CCCN2C(=O)[C@H](Cc2c[nH]cn2)NC(=O)[C@@H](NC(=O)[C@H](C)N)C[S][Bi]2[S]C[C@@H](C(N)=O)NC(=O)[C@H](CCC(=O)O)NC(=O)[C@H]([C@@H](C)O)NC(=O)[C@@H]3CCCN3C(=O)[C@H](CO)NC(=O)[C@H](C[S]2)NC1=O` [4b] the “affinity towards streptavidin (in words)” value ([1]; SPR) was “two-digit micromolar dissociation constants”, the Response ([1]; SPR, 0.78125 μM peptide) was 5.1388 RU and the Response ([1]; SPR, 1.5625 μM peptide) was 8.1368 RU. It also gave a Response ([1]; SPR, 3.125 μM peptide) of 20.2314 RU, a Response ([1]; SPR, 6.25 μM peptide) of 72.2878 RU and a Response ([1]; SPR, 12.5 μM peptide) of 222.296 RU. It also gave a Response ([1]; SPR, 25 μM peptide) of 413.089 RU, a Response ([1]; SPR, 50 μM peptide) of 508.05 RU and a Response ([1]; SPR, 100 μM peptide) of 531.655 RU. It also gave a Response ([1]; SPR, 200 μM peptide) of 538.328 RU.

In the case of `[Bi+3]` [Bi(III)], the “effect on phage infectivity” value [2] is reported as “uncompromised”.

With `[Br][Bi]([Br])[Br]` [BiBr3, bismuth tribromide] the “effect on phage infectivity” value [2] was “no relevant negative effect”.

For `O=[As][O-].[Na+]` [NaAsO2, sodium arsenite], the “effect on phage infectivity” value [2] was “no relevant negative effect” and the “effect on phage infectivity” value ([2]; listed as As(III)) was “uncompromised”.

In the case of `C[C@H](N)C(=O)N[C@@H](CS)C(=O)N1CCC[C@H]1C(=O)N[C@@H](Cc1c[nH]cn1)C(=O)N1CCC[C@H]1C(=O)N[C@@H](CCC(N)=O)C(=O)N[C@@H](CS)C(=O)N[C@@H](CCC(=O)O)C(=O)N[C@@H](C)C(=O)N[C@@H](C)C(=O)N[C@@H](C)C(=O)N[C@@H](CS)C(N)=O` [compound 2] (H-ACPHPQCEAAAC-NH2), the Kd [1] is reported as 1520 µM, the “affinity of linear versus bicyclic peptide (in words)” value ([1]; SPR) is reported as “two orders of magnitude lower affinity” and the Response ([1]; SPR, 15.625 μM peptide) is reported as 3.2958 RU. It also gave a Response ([1]; SPR, 31.25 μM peptide) of 3.9468 RU, a Response ([1]; SPR, 62.5 μM peptide) of 5.3014 RU and a Response ([1]; SPR, 125 μM peptide) of 8.119 RU. It also gave a Response ([1]; SPR, 250 μM peptide) of 13.0777 RU, a Response ([1]; SPR, 500 μM peptide) of 20.3557 RU and a Response ([1]; SPR, 1000 μM peptide) of 32.6253 RU. For the same molecule, the Response ([1]; SPR, 2000 μM peptide) was 47.8172 RU and the Response ([1]; SPR, 4000 μM peptide) was 62.2756 RU.

With `C[C@H](N)C(=O)N[C@@H](CS)C(=O)N[C@@H](Cc1c[nH]cn1)C(=O)N1CCC[C@H]1C(=O)N[C@@H](CCC(N)=O)C(=O)N[C@@H](CC(N)=O)C(=O)N[C@@H](CS)C(=O)N[C@H](C(=O)N[C@@H](CCC(=O)O)C(=O)N1CCC[C@H]1C(=O)N[C@@H](C)C(=O)N[C@@H](CS)C(N)=O)[C@@H](C)O` [compound 3] (H-ACHPQNCTEPAC-NH2) the Kd [1] was 927 µM, the “affinity of linear versus bicyclic peptide (in words)” value ([1]; SPR) was “two orders of magnitude lower affinity” and the Response ([1]; SPR, 11.7188 μM peptide) was 4.8115 RU. The Response ([1]; SPR, 23.4375 μM peptide) was 6.9877 RU, the Response ([1]; SPR, 46.875 μM peptide) was 10.9154 RU and the Response ([1]; SPR, 93.75 μM peptide) was 18.7272 RU. It also gave a Response ([1]; SPR, 187.5 μM peptide) of 34.0455 RU, a Response ([1]; SPR, 375 μM peptide) of 61.2377 RU and a Response ([1]; SPR, 750 μM peptide) of 109.838 RU. The Response ([1]; SPR, 1500 μM peptide) was 163.522 RU and the Response ([1]; SPR, 3000 μM peptide) was 172.646 RU.

With `O=C([O-])CC(O)(CC(=O)[O-])C(=O)[O-].O=C([O-])CC(O)(CC(=O)[O-])C(=O)[O-].[Bi+3].[K+].[K+].[K+]` [gastrodenol, bismuth tripotassium dicitrate] the “effect on phage infectivity” value [2] was “no relevant negative effect”.
